From US20090054392A1, “NAPHTHYLPYRIMIDINE, NAPHTHYLPYRAZINE AND NAPHTHYLPYRIDAZINE ANALOGS AND THEIR USE AS AGONISTS OF THE WNT-BETA-CATENIN CELLULAR MESSAGING SYSTEM” (Wyeth, priority 2007, published 2009)

Test system: Dkk1-LRP5-TCF-Luciferase
Experiment: Functional Dkk1-LRP5-TCF-Luciferase Assay in U2OS Cells
Conditions: for EC50 / fold induction at 2 µM / fold induction at 20 µM: Homo sapiens, U2OS; for fold induction at 2 µM: read-out: B = TCF ACTIVITY/DMSO CONTROL Fold induction @ 2.0 uM, 2.0 uM compound; for fold induction at 20 µM: read-out: C = TCF ACTIVITY/DMSO CONTROL Fold induction @ 20.0 uM, 20.0 uM compound; for A = MAX FOLD Induction/DMSO CONTROL: maximum fold induction over DMSO control
Method: Biological Evaluation—Functional Dkk1-LRP5-TCF-Luciferase Assay in U2OS Cells
Frozen U2OS-Dkk1-HTS Reporter cells generation: U2OS Human Bone derived cells (Osteosarcoma) are grown in McCoy's 5A Medium (Modified), with L -glutamine (GIBCO Cat No. 16600-082)+1% Pen-Strep+5% FBS) plated at 1×10^7 cells/T175 cm flask. The next day, the cells are co-transfected overnight with the following plasmids: (a) Test reporter (16×TCF-TK-FireFly-Luci), (b) Internal Control Reporter (TK-Renilla-Luci), (c) Wnt3a and (d) Dkk1. GIBCO's Lipofectamine 2000 and OptiMEM are used for the transfection. After a minimum of 4 hr of transfection at 37° C., the plasmid-transfected cells are trypsinized, counted, and suspended in freezing medium (95% FBS+5% DMSO). The reporter cells are frozen at 1×10^7/ml concentrations, aliquoted into 0.5 ml or 2.5 ml/tube and stored at 70° C.
The following day, test compounds are added under HTS setup by Plate Track into 384 well plates (white, TC treated, Falcon plate) such that the final concentration of the compounds in 20 μL/well cell will be 5 μg/ml (final concentration of DMSO=0.25% and final compound concentration=20 μM). Vials of frozen reporter cells are thawed by warming the vial in a 37° C. water bath for 60-120 seconds with some shaking until the cells formed a suspension. The thawed cells are transferred into a cold 50 ml (or larger) tube and mixed well by gentle pipetting. The appropriate amount of cold Phenol Red Free RPMI medium-1640 (GIBCO, Cat #11835-030) with L-glutamine is added, both with ˜5% FBS (GIBCO-BRL, Cat. #16000-044), so that 20 μl of the final cell suspension will contain ˜5,000 cells. The cell dilution is done such that the final concentration of FBS is ˜5%.
Diluted cells (20 μl) are added into each well in a 384 well plate. The plate is incubated at 37° C. under 5% CO2 for ˜20 h. Bright-Glo substrate, 2.5 μl/well is added, and the Fire Fly Luciferase is measured using VLUX (60 second exposure) immediately after the substrate is added. Test compounds are dissolved in DMSO (100%) and added to specified wells. Raw luciferase signal data obtained as relative luminescence units (RLUs) for the test compounds are normalized to the signal of the mean of the sample reporter cell plate with DMSO.

EC50	A = MAX FOLD Induction/DMSO CONTROL	Compound	fold induction at 2 µM	fold induction at 20 µM
0.659 µM	1.990 fold	CO[C@@H]1CCN(c2nccc(-c3ccc4ccccc4c3)n2)C1 [2-[(3R)-3-methoxypyrrolidin-1-yl]-4-(2-naphthyl)pyrimidine]	1.36	3.1
3.93 µM	3.800 fold	c1ccc2cc(-c3ccnc(N4CC[C@H](n5ccnc5)C4)n3)ccc2c1 [2-[(3S)-3-(1H-imidazol-1-yl)pyrrolidin-1-yl]-4-(2-naphthyl)pyrimidine]	1.29	3.92
	2.430 fold	c1ccc2cc(-c3ccnc(N4CC[C@@H](Cn5ccnc5)C4)n3)ccc2c1 [2-[(3S)-3-(1H-imidazol-1-ylmethyl)pyrrolidin-1-yl]-4-(2-naphthyl)pyrimidine]	1.27	4.29
0.696 µM	7.175 fold	CN1CCN([C@H]2CCN(c3nccc(-c4ccc5ccccc5c4)n3)C2)CC1 [2-[(3S)-3-(4-methylpiperazin-1-yl)pyrrolidin-1-yl]-4-(2-naphthyl)pyrimidine]	5.69	0.01
2.58 µM	1.755 fold	CO[C@H]1CCN(c2nccc(-c3ccc4ccccc4c3)n2)C1 [2-[(3S)-3-methoxypyrrolidin-1-yl]-4-(2-naphthyl)pyrimidine]	1.48	2.27
	2.760 fold	CCN(CCO)CC1CCN(c2nccc(-c3ccc4ccccc4c3)n2)CC1 [2-[ethyl({1-[4-(2-naphthyl)pyrimidin-2-yl]piperidin-4-yl}methyl)amino]ethanol]	4.93	0.01
2.26 µM	3.635 fold	CCN(CCO)CC1CCN(c2nccc(-c3ccc4ccccc4c3)n2)C1 (stereo not shown) [2-[ethyl({1-[4-(2-naphthyl)pyrimidin-2-yl]pyrrolidin-3-yl}methyl)amino]ethanol]	2.8	0.01
2.92 µM	3.895 fold	CCN(CCO)C[C@H]1CCN(c2nccc(-c3ccc4ccccc4c3)n2)C1 [2-[ethyl({(3R)-1-[4-(2-naphthyl)pyrimidin-2-yl]pyrrolidin-3-yl}methyl)amino]ethanol]	2.93	0.15
	3.540 fold	CCN(CCO)C[C@@H]1CCN(c2nccc(-c3ccc4ccccc4c3)n2)C1 [2-[ethyl({(3S)-1-[4-(2-naphthyl)pyrimidin-2-yl]pyrrolidin-3-yl}methyl)amino]ethanol]	3.48	0.04
		c1ccc2cc(-c3ccnc(N4CCC4)n3)ccc2c1 [2-azetidin-1-yl-4-(2-naphthyl)pyrimidine]	1.37	1.58
	1.480 fold	CC(C)CNCC1CCN(c2nccc(-c3ccc4ccccc4c3)n2)CC1 [2-methyl-N-({1-[4-(2-naphthyl)pyrimidin-2-yl]piperidin-4-yl}methyl)propan-1-amine]	1.4	0.14
10.6 µM	3.890 fold	CC(C)(C)NCC1CCN(c2nccc(-c3ccc4ccccc4c3)n2)CC1 [2-methyl-N-({1-[4-(2-naphthyl)pyrimidin-2-yl]piperidin-4-yl}methyl)propan-2-amine]	1.49	5.76
1.37 µM	3.106 fold	CC(C)(C)NCC1CCN(c2nccc(-c3ccc4ccccc4c3)n2)C1 (stereo not shown) [2-methyl-N-({1-[4-(2-naphthyl)pyrimidin-2-yl]pyrrolidin-3-yl}methyl)propan-2-amine]	1.99	0.018
	2.300 fold	CC(C)(C)NC[C@H]1CCN(c2nccc(-c3ccc4ccccc4c3)n2)C1 [2-methyl-N-({(3R)-1-[4-(2-naphthyl)pyrimidin-2-yl]pyrrolidin-3-yl}methyl)propan-2-amine]	2.24	0.01
	4.610 fold	CC(C)(C)NC[C@@H]1CCN(c2nccc(-c3ccc4ccccc4c3)n2)C1 [2-methyl-N-({(3S)-1-[4-(2-naphthyl)pyrimidin-2-yl]pyrrolidin-3-yl}methyl)propan-2-amine]	2.44	0.06
	1.420 fold	NCCC1CCN(c2nccc(-c3ccc4ccccc4c3)n2)CC1 [2-{1-[4-(2-naphthyl)pyrimidin-2-yl]piperidin-4-yl}ethanamine]	2.15	0.005
	1.840 fold	OCCC1CCN(c2nccc(-c3ccc4ccccc4c3)n2)CC1 [2-{1-[4-(2-naphthyl)pyrimidin-2-yl]piperidin-4-yl}ethanol]	1.54	1.64
		CS(=O)(=O)OCCC1CCN(c2nccc(-c3ccc4ccccc4c3)n2)CC1 [2-{1-[4-(2-naphthyl)pyrimidin-2-yl]piperidin-4-yl}ethyl methanesulfonate]	1.02	1.18
0.7 µM	5.940 fold	NCCC1CCN(c2nccc(-c3ccc4ccccc4c3)n2)C1 (stereo not shown) [2-{1-[4-(2-naphthyl)pyrimidin-2-yl]pyrrolidin-3-yl}ethanamine]	4.23	
	1.340 fold	CN1CCN(CC2CCN(c3nccc(-c4ccc5ccccc5c4)n3)C2)CC1 (stereo not shown) [2-{3-[(4-methylpiperazin-1-yl)methyl]pyrrolidin-1-yl}-4-(2-naphthyl)pyrimidine]	2.7	
1.19 µM	5.430 fold	CN1CCN(CC2CCN(c3nccc(-c4ccc5ccccc5c4)n3)CC2)CC1 [2-{4-[(4-methylpiperazin-1-yl)methyl]piperidin-1-yl}-4-(2-naphthyl)pyrimidine]	5.46	
	2.270 fold	NCC[C@H]1CCCN1c1nccc(-c2ccc3ccccc3c2)n1 [2-{(2R)-1-[4-(2-naphthyl)pyrimidin-2-yl]pyrrolidin-2-yl}ethanamine]	2.72	0.01
	1.600 fold	CN1CCN(C(=O)[C@H]2CCCN2c2nccc(-c3ccc4ccccc4c3)n2)CC1 [2-{(2R)-2-[(4-methylpiperazin-1-yl)carbonyl]pyrrolidin-1-yl}-4-(2-naphthyl)pyrimidine]	1.01	2.09
	2.950 fold	NCC[C@@H]1CCCN1c1nccc(-c2ccc3ccccc3c2)n1 [2-{(2S)-1-[4-(2-naphthyl)pyrimidin-2-yl]pyrrolidin-2-yl}ethanamine]	4.08	0.02
		CN1CCN(C(=O)[C@@H]2CCCN2c2nccc(-c3ccc4ccccc4c3)n2)CC1 [2-{(2S)-2-[(4-methylpiperazin-1-yl)carbonyl]pyrrolidin-1-yl}-4-(2-naphthyl)pyrimidine]	0.9	1.6
